# According to patent US20240240189A1, “CANCER TREATMENT BY TARGETING PROTEINS OR INTERACTIONS OF EPHRINB-RGS3-KIF20A-SEPT7 AXIS” (CITY OF HOPE, priority 2021, published 2024):
# Entries after “also recorded” stand apart in the source; their conditions may differ.
# Assays:
# Daoy cells = experiment: Intracranial Daoy tumor transplantation in NSG mice, bioluminescence imaging and survival; format: in vivo, mouse; conditions: Daoy Clone #2 in cerebellum of NSG mice
# Text: Expression of the two factors was highly correlated. […] Tumor growths were monitored by bioluminescence imaging. Doxycycline treatment started at four weeks after initial cell implantation (indicated with a red font and line). The treatment group of mice was first given doxycycline by gavage for two consecutive days and was then fed with doxycycline-containing food for the entire duration of the experiment.
# Intracranial tumor transplantation and Bioluminescence imaging: NSG mice (8-10 weeks old) were anesthetized with isoflurane and oxygen and placed under microscope. […] The transplanted mice were then monitored weekly with luciferase-based bioluminescence imaging for tumor growth. […] Tumor growths in two mice groups were monitored weekly by bioluminescence imaging. Survivals of mice after cell transplantation were recorded and analyzed.
# To examine the function of KIF20A in tumor formation by Daoy cells, 10^5 Clone #2 cells were injected into the cerebellum of each recipient NSG mouse using a method previously described^22. Growth of tumor cells was then monitored by bioluminescence imaging. […] The mice were then kept on doxycycline-containing food continuously and were monitored for tumor growth by bioluminescence imaging.
# GISC017 cells [1] = experiment: Cell growth of GISC017 cells; format: cell-based, human; conditions: vs scrambled shRNA
# Text: To further investigate the relevance of KIF20A in human brain tumors, inhibition of KIF20A in patient-derived GBM-initiating/stem cells (GISCs) was examined. As the ERKS axis functions in different types of brain tumor-initiating/stem cells, data obtained from study of GISCs would be applicable to other brain tumor cell types. Multiple lines of patient-derived GISCs were obtained from Dr. Christine Brown. These low passaged GISCs could be expanded in cultures and could engraft in NSG mice^43, 44. FIG. 11 summarizes the results of testing KIF20A in one GISC line (GISC017) by constitutive expression of a control scrambled shRNA or shKIF20A726 (shRNA targeting hKIF20A) in pNUT vector-based lentiviral expression system. […] In the above cell cycle exit analysis, co-staining of differentiation markers (e.g. βlll-tubulin, DCX, or NeuN) was performed, however, these markers were detected in EdU^+Ki67^− (cells having left the cell cycle) but also in some EdU^+Ki67^+ (cells staying in the cell cycle) cells, which might reflect a technical artefact observed with progenitor/stem cells in culture. […]
# GISC017 cells [2] = experiment: GISC017 xenograft in brains of NSG mice; format: in vivo; conditions: GISC017 clones with Tet-inducible shKIF20A726 in NSG mouse brain, doxycycline treatment
# Experimental: FIG. 12a: NSG mice were injected with GISC017 cells stably integrated with Tet-inducible shRNA and luciferase. Treatment with doxycycline started at 10 days after cell implantation (indicated by the red line). FIG. 12b: Survival data of the mice were analyzed by Kaplan-Meier plot.
# GISC017 cell clones stably integrated with a Tet-inducible shKIF20A726 and luciferase expression cassette were established.
substance,measurement,setting,value
"5′-GAGGAGTGTCTACATCGAA-TTCAAGAGA-TTCGATGTAGACACTCCTC-3′ (GAGGAGTGTCTACATCGAATTCAAGAGATTCGATGTAGACACTCCTC; hairpin, further chemistry not given here) [shKIF20A726, shRNA targeting human KIF20A transcript]",brain tumor growth (bioluminescence imaging),Daoy cells; doxycycline from four weeks after implantation vs untreated,significantly slower growth of brain tumors; also recorded: inhibited tumor growth
same,survival (Kaplan-Meier),Daoy cells; doxycycline treatment vs untreated,better overall survival
same,cell growth rate,GISC017 cells [1],slower cell growth rate; also recorded: inhibited cell growth
same,animal survival,GISC017 cells [2],prolong animal survival
same,tumor xenograft growth,GISC017 cells [2],suppress tumor xenograft growth
